Assay results taken from US10882837B2, “Amide compounds and use thereof” (ALPHALA CO., LTD., priority 2017, dated 2021).

How the values were obtained:
glucagon receptor (GCGR) = molecular target: T1, glucagon receptor (GCGR) (Homo sapiens, UniProt P47871); assay: Glucagon cAMP inhibition assay (Cisbio cAMP Dynamic 2 HTRF); format: cell-based; details: GCGR overexpressed CHO-K1 cells or human primary hepatocytes (not specified); glucagon at EC50
T1 construct: expressed in transfected cells; host or cells: CHO-K1
T1 sequence (P47871 26-477, species assumed): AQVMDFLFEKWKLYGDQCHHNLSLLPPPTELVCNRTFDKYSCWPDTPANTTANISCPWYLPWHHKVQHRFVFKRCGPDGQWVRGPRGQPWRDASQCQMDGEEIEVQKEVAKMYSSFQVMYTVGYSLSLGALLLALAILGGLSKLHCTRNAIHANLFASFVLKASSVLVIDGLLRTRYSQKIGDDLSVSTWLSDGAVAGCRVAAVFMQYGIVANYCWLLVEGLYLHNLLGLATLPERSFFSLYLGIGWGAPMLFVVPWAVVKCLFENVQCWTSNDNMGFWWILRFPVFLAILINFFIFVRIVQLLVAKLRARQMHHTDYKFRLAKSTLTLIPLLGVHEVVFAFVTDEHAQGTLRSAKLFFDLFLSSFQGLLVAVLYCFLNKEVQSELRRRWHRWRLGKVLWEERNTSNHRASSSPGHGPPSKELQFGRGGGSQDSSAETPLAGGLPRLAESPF
Outline: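 GCGR-overexpressing CHO-K1 cells or human primary hepatocytes in HBSS with 0.1% BSA and 800 nM IBMX, pre-incubated 30 min with compound (1% DMSO final), then stimulated 30 min at room temperature with glucagon at its EC50. cAMP measured by HTRF after 60 min lysis; IC50 from non-linear regression.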

GCGR = GCGR (Homo sapiens, UniProt P47871); assay: I125-glucagon binding assay (competition, GCGR membrane fractions); design: expressed in transfected cells; host or cells: CHO-K1; inhibition: dose or concentration left out as unconfirmed; details: for IC50: competition with I125-glucagon 0.0625 nM, membrane fractions from GCGR overexpressed CHO-K1 cells
Chain of GCGR (P47871 26-477, species assumed): as above
Outline: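 Membranes from CHO-K1 cells overexpressing GCGR (7.5 µg/well) were preincubated 5 min with serially diluted compound in 50 mM Tris pH 7.4, 0.5% BSA. I125-glucagon was then added at 0.0625 nM final and incubated 30 min at 25 °C. After filtration, bound radioactivity was counted and IC50 derived by non-linear regression.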

Compound	IC50 (glucagon receptor (GCGR))	IC50 (GCGR)	inhibition (GCGR; read-out: percentage of inhibition (number in parenthesis in IC50 binding column))	inhibition at 30 µM (GCGR; compound at 30 μM, read-out: percentage of inhibition (number in parenthesis in IC50 binding column))
CCC(C)[C@@H](Nc1ccc(C(=O)NCCC(=O)O)cc1)c1ccc(-c2nnc(C(F)(F)F)o2)cc1 (stereo partly drawn) [Compound 1-37, 3-(4-(((1R)-2-methyl-1-(4-(S-(trifluoromethyl)-1,3,4-oxadiazol-2-yl)phenyl)butyl)amino)benzamido)propanoic acid]	3260 nM	1640 nM	–	–
CCCC[C@H](Nc1ccc(C(=O)NCCC(=O)O)cc1)c1ccc(-c2nnc(C(F)(F)F)o2)cc1 [Compound 1-53, (S)-3-(4-((1-(4-(5-(trifluoromethyl)-1,3,4-oxadiazol-2-yl)phenyl)pentyl)amino)benzamido)propanoic acid]	1870 nM	351 nM	–	–
CCC(C)C(Nc1ccc(C(=O)NCCC(=O)O)cc1)c1ccc(-c2nnc(-c3ccccc3)o2)cc1 (stereo not drawn) [Compound 1-11, 3-(4-((2-Methyl-1-(4-(5-phenyl-1,3,4-oxadiazol-2-yl)phenyl)butyl)amino)benzamido)propanoic acid]	2540 nM	72 nM	–	–
CCOC(=O)CCNC(=O)c1ccc(NC(c2ccc(-c3nnc(C(C)(C)C)o3)cc2)C(C)CC)cc1 (stereo not drawn) [Compound 1-21, Ethyl 3-(4-((1-(4-(5-(tert-butyl)-1,3,4-oxadiazol-2-yl)phenyl)-2-methylbutyl)amino)benzamido)propanoate]	126 nM	3310 nM	–	–
CC(C)[C@H](Nc1ccc(C(=O)NCCC(=O)O)cc1)c1ccc(-c2nnc(-c3ccccc3)o2)cc1 [Compound 1-41, (S)-3-(4-(2-methyl-1-(4-(5-phenyl-1,3,4-oxadiazol-2-yl)phenyl)propylamino)benzamido)propanoic acid]	2710 nM	107 nM	–	–
CCCC[C@@H](Nc1ccc(C(=O)NCCC(=O)O)cc1)c1ccc(-c2nnc(C(F)(F)F)o2)cc1 [Compound 1-54, (R)-3-(4-((1-(4-(5-(trifluoromethyl)-1,3,4-oxadiazol-2-yl)phenyl)pentyl)amino)benzamido)propanoic acid]	3670 nM	3070 nM	–	–
CCCCC(Nc1ccc(C(=O)NCCC(=O)OCC)cc1)c1ccc(-c2nnc(C(C)(C)C)o2)cc1 (stereo not drawn) [Compound 1-19, Ethyl 3-(4-((1-(4-(5-(tert-butyl)-1,3,4-oxadiazol-2-yl)phenyl)pentyl)amino)benzamido)propanoate]	203 nM	4410 nM	–	–
CCOC(=O)CCNC(=O)c1ccc(N[C@H](c2ccc(-c3nnc(-c4ccccc4)o3)cc2)C(C)C)cc1 [Compound 1-39, (S)-ethyl 3-(4-(2-methyl-1-(4-(5-phenyl-1,3,4-oxadiazol-2-yl)phenyl)propylamino)benzamido)propanoate]	40.3 nM	2850 nM	–	–
CC(C)C(Nc1ccc(C(=O)NCCC(=O)O)cc1)c1ccc(-c2nnc(C(F)(F)F)o2)cc1 (stereo not drawn) [Compound 1-4, 3-(4-((2-Methyl-1-(4-(5-(trifluoromethyl)-1,3,4-oxadiazol-2-yl)phenyl)propyl)amino)benzamido)propanoic acid]	> 30000 nM	433 nM	–	–
CCOC(=O)CCNC(=O)c1ccc(NC(c2ccc(-c3nnc(C(C)(C)C)o3)cc2)C(C)C)cc1 (stereo not drawn) [Compound 1-23]	180 nM	18700 nM	–	–
CCOC(=O)CCNC(=O)c1ccc(NC(c2ccc(-c3nnc(-c4ccc(OC)cc4)o3)cc2)C(C)C)cc1 (stereo not drawn) [Compound 1-25, ethyl 3-(4-((l-(4-(5-(4-methoxyphenyl)-1,3,4-oxadiazol-2-yl)phenyl)-2-methylpropyl)amino)benzamido)propanoate]	284 nM	> 30000 nM	–	–
CCCCC(Nc1ccc(C(=O)NCCC(=O)OCC)cc1)c1ccc(-c2nnc(-c3ccccn3)o2)cc1 (stereo not drawn) [Compound 1-15]	306 nM	578 nM	–	–

Other lines, results leading:

IC50 (glucagon receptor (GCGR))	IC50 (GCGR)	inhibition (GCGR; read-out: percentage of inhibition (number in parenthesis in IC50 binding column))	inhibition at 30 µM (GCGR; compound at 30 μM, read-out: percentage of inhibition (number in parenthesis in IC50 binding column))	Compound
1360 nM	> 30000 nM	–	–	CCOC(=O)CCNC(=O)c1ccc(N[C@H](c2ccc(-c3nnc(C(F)(F)F)o3)cc2)C(C)C)cc1 [Compound 1-55, ethyl (S)-3-(4-((2-methyl-1-(4-(5-(trifluoromethyl)-1,3,4-oxadiazol-2-yl)phenyl)propyl)amino)benzamido)propanoate]
172 nM	1820 nM	18%	–	CCOC(=O)CCNC(=O)c1ccc(N[C@H](c2ccc(-c3noc(C(F)(F)F)n3)cc2)C(C)CC)cc1 (stereo partly drawn) [Compound 2-29, ethyl 3-(4-(((1S)-2-methyl-1-(4-(5-(trifluoromethyl)-1,2,4-oxadiazol-3-yl)phenyl)butyl)amino)benzamido)propanoate]
59 nM	1020 nM	–	32%	CCCC[C@H](Nc1ccc(C(=O)NCCC(=O)OCC)cc1)c1ccc(-c2nc(-c3ccccc3)no2)cc1 [Compound 5-7, ethyl (S)-3-(4-((1-(4-(3-phenyl-1,2,4-oxadiazol-5-yl)phenyl)pentyl)amino)benzamido)propanoate]
4500 nM	143 nM	–	–	CC(C)C(Nc1ccc(-c2nnc(-c3ccc(F)cc3)o2)cc1)c1ccc(C(=O)NCCC(=O)O)cc1 (stereo not drawn) [Compound 3-10, 3-(4-(1-((4-(5-(4-fluorophenyl)-1,3,4-oxadiazol-2-yl)phenyl)amino)-2-methylpropyl)benzamido)propanoic acid]
> 30000 nM	875 nM	–	–	CC(C)[C@@H](Nc1ccc(C(=O)NCCC(=O)O)cc1)c1ccc(-c2nnc(C(F)(F)F)o2)cc1 [Compound 1-58, (R)-3-(4-((2-methyl-1-(4-(5-(trifluoromethyl)-1,3,4-oxadiazol-2-yl)phenyl)propyl)amino)benzamido)propanoic acid]
295 nM	29 nM	–	–	CC(C)[C@H](Nc1ccc(C(=O)NCCC(=O)O)cc1)c1ccc(-c2noc(-c3ccccc3)n2)cc1 [Compound 2-28, (S)-3-(4-((2-methyl-1-(4-(5-phenyl-1,2,4-oxadiazol-3-yl)phenyl)propyl)amino)benzamido)propanoic acid]
85.6 nM	> 30000 nM	–	–	CCOC(=O)CCNC(=O)c1ccc(OC(c2ccc(-c3nc4ccccc4s3)cc2)C(C)C)cc1 (stereo not drawn) [Compound 6-1, Ethyl 3-(4-(1-(4-(benzo[d]thiazol-2-yl)phenyl)-2-methylpropoxy)benzamido)propanoate]
959 nM	124 nM	–	–	CC(C)CC(Nc1ccc(C(=O)NCCC(=O)O)cc1)c1ccc(-c2noc(-c3ccccc3)n2)cc1 (stereo not drawn) [Compound 2-10, 3-(4-((3-methyl-1-(4-(5-phenyl-1,2,4-oxadiazol-3-yl)phenyl)butyl)amino)benzamido)propanoic acid]
686 nM	226 nM	–	–	CCCC[C@H](Nc1ccc(C(=O)NCCC(=O)O)cc1)c1ccc(-c2noc(-c3ccccn3)n2)cc1 [Compound 2-38, (S)-3-(4-((1-(4-(5-(pyridin-2-yl)-1,2,4-oxadiazol-3-yl)phenyl)pentyl)amino)benzamido)propanoic acid]
71.4 nM	1740 nM	–	–	CCOC(=O)CCNC(=O)c1ccc(N[C@H](c2ccc(-c3nc(-c4ccccc4)no3)cc2)C(C)C)cc1 [Compound 5-3, ethyl (S)-3-(4-((2-methyl-1-(4-(3-phenyl-1,2,4-oxadiazol-5-yl)phenyl)propyl)amino)benzamido)propanoate]
428 nM	254 nM	–	–	CCCC[C@H](Nc1ccc(C(=O)NCCC(=O)O)cc1)c1ccc(-c2noc(C(F)(F)F)n2)cc1 [Compound 2-47, (S)-3-(4-((1-(4-(5-(trifluoromethyl)-1,2,4-oxadiazol-3-yl)phenyl)pentyl)amino)benzamido)propanoic acid]
